“Also recorded” adds a separate entry of the source.
How the values were obtained:
[1] = tested on: subacute back pain (SBP) participants; assay: Double-blind randomized trial of LDP+NPX vs PLC+NPX in subacute back pain; phone NRS pain ratings; format: in vivo, human; conditions: for One-week average pain ratings, pain intensity (0-10), Mean ± SEM: phone NRS 0-10 scale
From the text: The main outcome measure was a Numerical Rating Scale (NRS),^19 where “0” corresponds to no pain and “10” indicates worst possible pain. On this scale, participants provided ratings of their current pain up to three times a day during study participation (6 months), via a smartphone app (phone NRS).
Treatment-related percentage residual pain was computed relative to the average phone-NRS score from the week preceding start of treatment, for every subject and every day, and then averaged across subjects for each treatment type (FIG. 2A). Over the treatment period, a rapid decrease in back pain intensity was observed that, in the NoTx group, stabilizes (with large fluctuations) at around 80% residual pain, while in the LDP+NPX and PLC+NPX groups residual pain continues to decrease for the duration of treatment, reaching a residual pain of about 50%. […] Remarkably in all three groups, the observed pain relief persisted after cessation of treatment, over the next 12 weeks.
This 24-week double-blind parallel randomized controlled trial was conducted at Northwestern University (Chicago, USA). Protocol and informed consent form were approved by Northwestern University IRB as well as NIDCR/NIH. All enrolled participants provided written informed consent. Safety and trial oversight were monitored by an independent data safety monitoring board and a clinical research organization, with NIDCR/NIH oversight. The trial was registered on ClinicalTrials.gov, under registry NCT01951105.
• Eligible subjects first underwent a brain imaging session and, using predefined brain-derived parameters, were stratified into high and low-risk subgroups for transitioning to CBP. Those in the low-risk category, who had 60% or higher probability of recovering naturally, entered the NoTx arm; the rest, who had less than 60% probability of recovering naturally, were randomized between a placebo-control arm, and a pharmacological treatment arm. A flexible dose escalation procedure was used and both researchers and participants were blinded to treatment type. Study medications were tapered off at week 12, and participants continued to be evaluated for another 12 weeks. At final visit, participants underwent a second brain scan.
The design was setup to evaluate safety, efficacy and gender dependence of the combination of carbidopa/levodopa (12.5 mg/50 mg-25 mg/100 mg-50 mg/200 mg, dose escalation based on response) plus naproxen 250 mg (LDP+NPX) administered three times a day, compared to placebo plus naproxen 250 mg (PLC+NPX) administered three times a day.
Treatment with carbidopa/levodopa was titrated up to 12.5 mg/50 mg three times/day over one week and then continued at that level for 4 weeks. If by the end of the initial 4-week period the participant “responded” [had >20% decrease in pain intensity from the average of all phone NRS ratings collected at baseline (between visit 1 and visit 3) to the average of all phone NRS ratings during those 5 weeks], the participant was maintained on that dose for the duration of the treatment period (12 weeks total). If there was no response, the carbidopa/levodopa dose was increased to 25 mg/100 mg three times/day for the following 4 weeks, at which time the pain status was re-evaluated (based on the average of all phone NRS rating during those four weeks, against baseline average). Again, if a response occurred, that dose was maintained in a blinded manner for the following 4 weeks of treatment; if not, further dose-titration carbidopa/levodopa occurred to 50 mg/200 mg three times/day for the final 4 weeks. When a participant experienced an adverse event at higher doses, the participant was given the next lower dose that s/he was able to tolerate and then maintained on that dose for the remainder of the 12-week dosing period. Naproxen dose (250 mg three times/day) remained constant for all participants throughout the study, except it was not given during the tapering down at the end of the study. […]

[2] = human, in vivo
Experimental: The study consisted of eight visits spread over ˜28 weeks, which included an initial screening/monitoring period (˜2 weeks), followed by a treatment period (12 weeks) and a post-treatment observational period (12 weeks). Safety and adverse events were assessed at each clinical visit, including vital signs. At each visit, researchers reminded participants to take their medication according to instructions. Safety was also assessed through blood screenings at baseline, while blood pressure, pulse and temperature were assessed at all study visits.
Adverse events (AEs) that occurred during treatment and those that occurred after treatment were differentiated. However, to account for potential late onset AEs or those related to withdrawal of medication, AEs occurring during a certain window after treatment were considered to be “during treatment”.
Analyses were done using MATLAB 2016a, JMP Pro version 13.2 (SAS Institute, Cary, N.C.) and SPSS version 25. Safety analyses included all participants who received at least one dose of the study drug.

Substance | Response rates across response criteria (80%-20% residual pain), in words ([1]; 3 and 6 months, by gender) | One-week average pain ratings, pain intensity (0-10), Mean ± SEM ([1]; 3 months (end of treatment)) | One-week average pain ratings, pain intensity (0-10), Mean ± SEM ([1]; 6 months (3 months after end of treatment)) | One-week average pain ratings, pain intensity (0-10), Mean ± SEM ([1]; BL (baseline)) | Efficacy by gender (residual pain, in words) ([1]; females vs males, residual pain at six months) | Males showing at least 80% improvement ([1]; males) | Residual pain reached over duration of treatment ([1]; relative to average phone-NRS of week preceding treatment, 12-week treatment) | Safety / tolerability in words [2]
placebo+naproxen [PLC+NPX] | less effective yielding similar response rates in males and females; also recorded: less effective and similar among males and females | 2.4 ± 0.4 | 2.2 ± 0.4 | 5.1 ± 0.3 | more effective than LDP+NPX in males | 38% | about 50% | –
levodopa/carbidopa [LDP] | – | – | – | – | – | – | – | No adverse effects specifically linked to LDP use were observed

Reference: US20220401391A1, “METHODS AND COMPOSITIONS FOR TREATING PAIN” (Apkarian Technologies LLC, priority 2019, published 2022)
